Assay results as given in the NIST ThermoML archive (doi:10.1016/j.jct.2006.07.021).
Several values for one entry are separate records, joined by “and”; a condition that tells them apart may be missing. Equal entries are not always repeated.

Test: xn = mol fraction of the nth substance listed
Settings: 101 kPa, Liquid, Pycnometric method

NC=O [formamide] + OCCO
mass density [kg/m3]
Settings | 293.15 K | 298.15 K | 303.15 K | 308.15 K | 313.15 K | 318.15 K
x1 = 0.0612 | 1114.13 | 1110.54 | 1106.94 | 1103.38 | 1099.81 | 1096.21
x1 = 0.1204 | 1114.54 | 1110.93 | 1107.31 | 1103.66 | 1100.06 | 1096.44
x1 = 0.1859 | 1115.04 | 1111.39 | 1107.74 | 1104.07 | 1100.42 | 1096.73
x1 = 0.2524 | 1115.55 | 1111.84 | 1108.13 | 1104.47 | 1100.77 | 1097.09
x1 = 0.3302 | 1116.11 | 1112.36 | 1108.66 | 1104.92 | 1101.18 | 1097.46
x1 = 0.3926 | 1116.61 | 1112.86 | 1109.1 | 1105.36 | 1101.62 | 1097.88
x1 = 0.4517 | 1117.2 | 1113.44 | 1109.64 | 1105.85 | 1102.08 | 1098.29
x1 = 0.5102 | 1117.85 | 1114.01 | 1110.17 | 1106.38 | 1102.55 | 1098.74
x1 = 0.5643 | 1118.48 | 1114.66 | 1110.81 | 1106.95 | 1103.13 | 1099.29
x1 = 0.6101 | 1119.18 | 1115.31 | 1111.46 | 1107.6 | 1103.72 | 1099.89
x1 = 0.6596 | 1120.09 | 1116.22 | 1112.36 | 1108.46 | 1104.59 | 1100.7
x1 = 0.7454 | 1122.11 | 1118.19 | 1114.23 | 1110.28 | 1106.35 | 1102.42
x1 = 0.8195 | 1124.35 | 1120.37 | 1116.38 | 1112.38 | 1108.42 | 1104.46
x1 = 0.8883 | 1127.02 | 1122.99 | 1119 | 1115.01 | 1110.98 | 1106.96
x1 = 0.9491 | 1130.03 | 1125.99 | 1121.95 | 1117.89 | 1113.86 | 1109.79
x1 = 1 | 1133 | 1129 | 1125 | 1121 | 1117 | 1113

CCCO [propan-1-ol] + NC=O
x2 = 0
Settings | mass density [kg/m3]
293.15 K | 803.71
298.15 K | 799.74
303.15 K | 795.77
308.15 K | 791.8
313.15 K | 787.83
318.15 K | 783.86

CCO [ethanol] + NC=O
x2 = 0
Settings | mass density [kg/m3]
293.15 K | 789.46
298.15 K | 785.2
303.15 K | 780.75
308.15 K | 776.42
313.15 K | 771.81
318.15 K | 767.38

CC(O)CO (centres undefined) [1,2-propanediol] + NC=O
x2 = 0
Settings | mass density [kg/m3]
293.15 K | 1036.38
298.15 K | 1032.76
303.15 K | 1029.14
308.15 K | 1025.52
313.15 K | 1021.9
318.15 K | 1018.28

NC=O [formamide] + CCCO
mass density
Settings | 293.15 K | 298.15 K | 303.15 K | 308.15 K | 313.15 K | 318.15 K
x1 = 0.0557 | 814.02 kg/m3 | 810.06 kg/m3 | 806.09 kg/m3 | 802.16 kg/m3 | 798.22 kg/m3 | 794.25 kg/m3
x1 = 0.1172 | 826.05 kg/m3 | 822.13 kg/m3 | 818.2 kg/m3 | 814.24 kg/m3 | 810.33 kg/m3 | 806.4 kg/m3
x1 = 0.1854 | 840.26 kg/m3 | 836.35 kg/m3 | 832.44 kg/m3 | 828.51 kg/m3 | 824.6 kg/m3 | 820.65 kg/m3
x1 = 0.2615 | 857.42 kg/m3 | 853.48 kg/m3 | 849.54 kg/m3 | 845.65 kg/m3 | 841.72 kg/m3 | 837.81 kg/m3
x1 = 0.3469 | 878.23 kg/m3 | 874.3 kg/m3 | 870.42 kg/m3 | 866.5 kg/m3 | 862.58 kg/m3 | 858.68 kg/m3
x1 = 0.3912 | 889.89 kg/m3 | 885.98 kg/m3 | 882.06 kg/m3 | 878.16 kg/m3 | 874.26 kg/m3 | 870.36 kg/m3
x1 = 0.4434 | 904.36 kg/m3 | 900.47 kg/m3 | 896.54 kg/m3 | 892.62 kg/m3 | 888.72 kg/m3 | 884.8 kg/m3
x1 = 0.4986 | 920.67 kg/m3 | 916.75 kg/m3 | 912.83 kg/m3 | 908.96 kg/m3 | 905.05 kg/m3 | 901.16 kg/m3
x1 = 0.5534 | 937.91 kg/m3 | 934.03 kg/m3 | 930.12 kg/m3 | 926.2 kg/m3 | 922.32 kg/m3 | 918.42 kg/m3
x1 = 0.6216 | 961.03 kg/m3 | 957.12 kg/m3 | 953.23 kg/m3 | 949.33 kg/m3 | 945.41 kg/m3 | 941.54 kg/m3
x1 = 0.68 | 982.32 kg/m3 | 978.44 kg/m3 | 974.57 kg/m3 | 970.66 kg/m3 | 966.78 kg/m3 | 962.88 kg/m3
x1 = 0.7535 | 1011.59 kg/m3 | 1007.72 kg/m3 | 1003.81 kg/m3 | 999.91 kg/m3 | 996.03 kg/m3 | 992.15 kg/m3
x1 = 0.827 | 1043.7 kg/m3 | 1039.83 kg/m3 | 1035.95 kg/m3 | 1032.06 kg/m3 | 1028.21 kg/m3 | 1024.36 kg/m3
x1 = 0.8832 | 1070.44 kg/m3 | 1066.54 kg/m3 | 1062.68 kg/m3 | 1058.82 kg/m3 | 1054.92 kg/m3 | 1051.03 kg/m3
x1 = 0.9328 | 1095.56 kg/m3 | 1091.65 kg/m3 | 1087.74 kg/m3 | 1083.81 kg/m3 | 1079.91 kg/m3 | 1075.97 kg/m3
x1 = 1 | – | 1133 kg/m3 and 1129 kg/m3 | 1125 kg/m3 | 1121 kg/m3 | 1117 kg/m3 | 1113 kg/m3
